Several values for one entry are separate records, joined by “and”; a condition that tells them apart may be missing. Equal values may be shown once.
Legend:
[1] = system: fluoroquinolone-susceptible pathogens in the urine; test: Concentration of pathogens in the urine of patients with uncomplicated UTIs after a single oral dose; assay type: in vivo; details: for Bacteria per ml urine - hours after dose: 2 hours: 2 hours after oral dose of 300 mg finafloxacin or 250 mg ciprofloxacin; for Bacteria per ml urine - hours after dose: 2 hours / Bacteria per ml urine - hours after dose: 4 hours / Bacteria per ml urine - hours after dose: 8 hours: individual patients, uncomplicated UTI; for Bacteria per ml urine - hours after dose: 4 hours: 4 hours after oral dose of 300 mg finafloxacin or 250 mg ciprofloxacin; for Bacteria per ml urine - hours after dose: 8 hours: 8 hours after oral dose of 300 mg finafloxacin or 250 mg ciprofloxacin
Protocol: Patients with uncomplicated UTIs were treated with an oral dose of 300 mg finafloxacin or 250 mg of ciprofloxacin and the concentrations of the fluoroquinolone-susceptible pathogens in the urine were determined before and 2, 4 and 8 hours after intake of the drugs. (−bacterial titers below 10^3).

[2] = system: isolate (pathogen from urine of patients with uncomplicated UTI); test: MIC of the patients' urine isolates; assay type: cell-based; details: ciprofloxacin MIC of each patient's isolate (patients 1-7, one line per patient)
Pseudomonas aeruginosa = test: Reduction of viable bacteria after 1 h exposure in broth adjusted to different pH values; assay type: cell-based; details: 1 h of incubation, inoculum 10^6 colony forming units per ml
Protocol: (§1) An overnight inoculum of 10^6 colony forming units per ml broth adjusted to different pH values of different pathogens was exposed to finafloxacin. Bacterial growth was determined before and after 1 h of incubation.

[3] = system: Stenotrophomonas maltophilia clinical isolate; test: as above; assay type: cell-based; details: 1 h of incubation, inoculum 10^6 colony forming units per ml
Protocol: as §1

[4] = system: complicated UTIs or pyelonephritis; test: Double-blind, randomized clinical study, complicated UTIs or pyelonephritis: treatment success (combined clinical and microbiological response); assay type: in vivo, patients; details: 17 days after start of treatment
[5] = Solubility of finafloxacin in the presence of Tris; assay type: physicochemical; details: compared with other buffer substances (e.g. phosphate buffer)
Text: (§2) However, Tris is herein used as solubility enhancing agent. […] Both effects lead to a completely unexpected result. Tris is therefore to be regarded as a specific tool to considerably enhance the solubility of finafloxacin in solutions. By preparing compositions comprising Tris it is possible to dissolve finafloxacin stably in such an amount therein that these compositions can effectively be used as parenteral compositions for the treatment of UTIs.

[6] = Stability of finafloxacin solutions comprising Tris; assay type: physicochemical; details: compositions comprising Tris
Text: as §2

SMILES | Bacteria per ml urine - hours after dose: 2 hours [1] | Bacteria per ml urine - hours after dose: 2 hours ([1]; listed as ciprofloxacin) | Bacteria per ml urine - hours after dose: 4 hours [1] | Bacteria per ml urine - hours after dose: 4 hours ([1]; listed as ciprofloxacin) | Bacteria per ml urine - hours after dose: 8 hours [1] | MIC of isolate [Cipro mg/L] [2] | number of viable bacteria in the medium reduced by (Pseudomonas aeruginosa; pH 5.2) | number of viable bacteria in the medium reduced by (Pseudomonas aeruginosa; pH 6.2) | number of viable bacteria in the medium reduced by (Pseudomonas aeruginosa; pH 7.2) | number of viable bacteria in the medium reduced by ([3]; pH 5.2) | number of viable bacteria in the medium reduced by ([3]; pH 7.2) | Bacteria per ml urine - hours after dose: 2 hours ([1]; listed as finafloxacin) | time after intake within which pathogens are eradicated in the urine ([1]; oral formulation, patients with uncomplicated UTIs) | treatment success (combined clinical response and microbiological response) ([4]; overall treatment duration 5 days (3 days intravenous 800 mg daily, then oral 800 mg daily)) | treatment success (combined clinical response and microbiological response) ([4]; overall treatment duration 10 days (3 days intravenous, then 7 days oral)) | solubility [5] | stability of solutions [6]
O=C(O)c1cn(C2CC2)c2cc(N3CCNCC3)c(F)cc2c1=O [Ciprofloxacin, reference compound] | — (bacterial titers below 10^3) and 2.0 × 10^3 Bacteria per ml urine and 6.1 × 10^4 Bacteria per ml urine | above 10^3 Bacteria per ml urine | — (bacterial titers below 10^3) (2×) and 2.7 × 10^3 Bacteria per ml urine | above 10^3 Bacteria per ml urine | — (bacterial titers below 10^3) | 0.012 mg/L (3×) and 0.19 mg/L (2×) and 0.008 mg/L (2×) |  |  |  |  |  |  |  |  |  |  | 
N#Cc1c(N2C[C@@H]3NCCO[C@H]3C2)c(F)cc2c(=O)c(C(=O)O)cn(C3CC3)c12 [Finafloxacin, (−)-8-cyano-1-cyclopropyl-6-fluoro-7-[(4aS,7aS)-hexahydropyrrolo[3,4-B]-1,4-oxazin-6(2H)-yl]-4-oxo-1,4-dihydroquinoline-3-carboxylic acid] | — (bacterial titers below 10^3) |  | — (bacterial titers below 10^3) |  | — (bacterial titers below 10^3) |  | 98.6% | 99.3% | 99.9% | 87.4% | 99.8% | below 10^3 Bacteria per ml urine | ≤ 2 h | 70.3% | 67.6% | high solubility | long term stability
